Test results published in PubChem BioAssay (NCI).
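Five compound concentrations were applied to cells in 96-well plates for 48 hours; endpoints were derived by simple linear interpolation of the resulting dose-response curve. TGI marks complete inhibition of growth.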

Tests used:
Assay in all cases: NCI tumour cell line growth inhibition, 48 h
HCT-15 colon = system: HCT-15 colon
HT29 colon = system: HT29 colon
IGROV1 ovarian = system: IGROV1 ovarian
NCI-H522 lung = system: NCI-H522 lung
NCI-H460 lung = system: NCI-H460 lung
UO-31 renal = system: UO-31 renal
CAKI-1 renal = system: CAKI-1 renal
UACC-257 melanoma = system: UACC-257 melanoma
HCT-116 colon = system: HCT-116 colon
SW-620 colon = system: SW-620 colon
HOP-62 NSCLC = system: HOP-62 NSCLC
OVCAR-4 ovarian = system: OVCAR-4 ovarian
A498 renal = system: A498 renal
RXF 393 renal = system: RXF 393 renal
SF-539 CNS = system: SF-539 CNS
MDA-MB-435 = system: MDA-MB-435
SK-MEL-28 melanoma = system: SK-MEL-28 melanoma
HOP-92 NSCLC = system: HOP-92 NSCLC
NCI/ADR-RES ovarian = system: NCI/ADR-RES ovarian

Compound | TGI (HCT-15 colon) [µM] | TGI (HT29 colon) [µM] | TGI (IGROV1 ovarian) [µM] | TGI (NCI-H522 lung) [µM] | TGI (NCI-H460 lung) [µM] | TGI (UO-31 renal) [µM] | TGI (CAKI-1 renal) [µM] | TGI (UACC-257 melanoma) [µM] | TGI (HCT-116 colon) [µM] | TGI (SW-620 colon) [µM] | TGI (HOP-62 NSCLC) [µM] | TGI (OVCAR-4 ovarian) [µM] | TGI (A498 renal) [µM] | TGI (RXF 393 renal) [µM] | TGI (SF-539 CNS) [µM] | TGI (MDA-MB-435) [µM] | TGI (SK-MEL-28 melanoma) [µM] | TGI (HOP-92 NSCLC) [µM] | TGI (NCI/ADR-RES ovarian) [µM]
CS(=O)(=O)NNS(=O)(=O)c1ccc(F)cc1 | > 100 | > 100 | > 100 | > 100 | > 100 | > 100 | > 100 | > 100 | > 100 | > 100 | > 100 | > 100 | > 100 | > 100 | > 100 |  |  |  | 
COc1ccc2c(=O)c3c([nH]c2c1)OCC3=O | > 100 | > 100 | > 100 |  | > 100 | > 100 | > 100 | > 100 | > 100 | > 100 | > 100 | > 100 | > 100 | > 100 | > 100 | > 100 | > 100 | > 100 | > 100
COc1cccc(C=O)c1[O-].COc1cccc(C=O)c1[O-].[Zn+2] | > 100 | > 100 | > 100 | > 100 | > 100 | 90.7 |  | 99.2 | > 100 | > 100 | > 100 | > 100 | > 100 | > 100 | > 100 |  | > 100 | 83.6 | 
CC(C)c1cccc(C(C)C)c1NC(=O)C(=O)C1CCC2=C(Sc3ccccc3N2)C1=O (stereo not drawn) | > 100 | > 100 | > 100 |  | > 100 | > 100 | > 100 | > 100 | > 100 | 32.5 | > 100 | > 100 | > 100 | > 100 | 76.7 |  | > 100 | > 100 | 
COC(=O)/C(=N\NC(N)=O)C(C#N)c1ccccc1 (stereo not drawn) | > 100 | > 100 |  | > 100 | > 100 | > 100 |  | > 100 | > 100 | > 100 | > 100 | > 100 | > 100 | > 100 | > 100 |  | > 100 |  | 
O=C1NC(=S)NC(=O)C1=CC1CC1 | > 100 | > 100 | > 100 | > 100 | > 100 | > 100 | > 100 | > 100 | > 100 | > 100 | > 100 | > 100 | > 100 | > 100 | > 100 |  | > 100 | > 100 | 
CC1SC2=NC3=C(c4ccccc4C3=O)C(c3ccccc3Cl)N2C1=O (stereo not drawn) | > 100 | > 100 | > 100 | 96.3 | > 100 | > 100 | > 100 | > 100 | > 100 | > 100 | > 100 | > 100 | > 100 |  | > 100 |  | > 100 | > 100 | 
CCc1ccc(Cc2ccc(CC)c(NC(=O)C(=O)C3NC(=S)NC3=O)c2CC)c(CC)c1NC(=O)C(=O)C1NC(=S)NC1=O (stereo not drawn) | > 100 |  | > 100 | > 100 | > 100 | > 100 | > 100 | > 100 | > 100 | > 100 | > 100 | > 100 | > 100 | > 100 | > 100 |  | > 100 | > 100 | 
Oc1ccc(C2Oc3cc(O)cc4c3C2c2cc(O)cc3c2C(c2cc(O)cc5c2C4C(c2ccc(O)cc2)O5)C(c2ccc(O)cc2)O3)cc1 (stereo not drawn) | > 25 |  |  | > 25 | > 25 | > 25 | > 25 | > 25 | > 25 | > 25 | > 25 | 10.4 | > 25 |  | 22.8 |  | 16.9 | 21.3 | 
CC(C)(CCl)NC(=O)c1cccc(C(=O)NC(C)(C)CCl)n1 | > 100 | > 100 | > 100 | > 100 | > 100 | > 100 | > 100 |  | > 100 | > 100 | > 100 | > 100 | > 100 | > 100 | > 100 |  | > 100 | > 100 | 
Cc1cccc(N=Cc2ccc(N(CCC#N)S(=O)(=O)c3ccccc3)cc2C)c1 | > 100 | > 100 | > 100 | > 100 |  | > 100 | > 100 | > 100 | > 100 | > 100 | > 100 | > 100 | > 100 |  | > 100 |  | > 100 | > 100 | 
COC(=O)N/N=C(\C)CC(=O)Nc1cccc([N+](=O)[O-])c1 |  | > 100 | > 100 | > 100 | > 100 | > 100 |  | > 100 | > 100 | > 100 | > 100 |  |  | > 100 | > 100 |  | > 100 | > 100 | 
CCc1cccc(C(C)CC)c1NC(=O)C(=O)Cc1nc2ccccc2o1 (stereo not drawn) | > 50 | > 50 | > 50 | > 50 | > 50 | > 50 | > 50 | > 50 | > 50 | > 50 | > 50 | > 50 | > 50 | > 50 | > 50 |  | > 50 | > 50 | 
COc1ccc([Se][Se]c2ccc(OC)cc2OC)c(OC)c1 | 4.33 | > 100 | 15.3 | 4 | > 100 | 5.31 | 18.6 | 5.85 | 10.5 | 7.04 |  | 4.6 | 53.5 | 6.27 | 3.16 |  | 4.56 | 4.46 | 
CC(C)(C)OC(=O)N1CC(C)(C)N2C(=O)C3(CCCO3)C12 (stereo not drawn) | > 100 | > 100 | > 100 | > 100 | > 100 | > 100 | > 100 | > 100 | > 100 | 30.4 | > 100 | > 100 | > 100 | > 100 | > 100 |  | > 100 | > 100 | 
C=CCCCN1CCCCC1=S | > 100 | > 100 | > 100 | > 100 | > 100 | > 100 |  | > 100 | > 100 | > 100 | > 100 | > 100 |  | > 100 | > 100 |  | > 100 | > 100 | 
O=c1[nH]nc(CNc2ccc(Cl)cc2Cl)c2ccccc12 | 89.1 | > 100 | 58.7 | 41.7 | 84.5 | 33.7 | 51.7 | 92.7 | 66.3 | > 100 | 43 | 39.8 | 33.7 | 34.9 | 41 |  | 52.4 | 80.1 | 
O=c1c(C(c2ccc([N+](=O)[O-])cc2)c2c(O)c3ccccc3n(-c3ccccc3)c2=O)c(O)c2ccccc2n1-c1ccccc1 | 30.7 |  | > 100 | 86.6 |  | 21.3 | > 100 |  | 76.5 | 57.7 | 37.4 | > 100 |  | 40.1 | 28 |  | 66.5 | 29.3 | 
CSc1nc(NC2OCC(OC(C)=O)C(OC(C)=O)C2OC(C)=O)c2c(n1)OCC2=O (stereo not drawn) | > 100 | > 100 | > 100 | > 100 | > 100 | > 100 | > 100 | > 100 | > 100 | > 100 | > 100 |  | > 100 | > 100 | > 100 |  | > 100 |  | 
CNS(=O)(=O)NNS(=O)(=O)c1ccc(F)cc1 | > 100 | > 100 | > 100 | > 100 | > 100 | > 100 | > 100 | > 100 | > 100 | > 100 | > 100 | > 100 | > 100 | > 100 | > 100 |  |  |  | 
COc1ccc(-c2cc(=O)c3cc(Cl)ccc3[nH]2)cc1 |  | > 100 | > 100 | > 100 | > 100 | > 100 |  | > 100 | > 100 | > 100 | > 100 | > 100 |  | > 100 | > 100 |  | > 100 | > 100 | 
CCCCCCCC(=O)OC[C@H](C[As](=O)(O)O)OC(=O)CCCCCCC | 23.5 | 25.2 | 14.4 | 4.07 |  | 16.5 |  | 27.2 | 19.2 | 20 | 33.1 | 29.1 | 25.3 | 16 | 18.2 |  | 26.5 | 31.1 | 
CSc1ccc2c(cc1=O)C(NC(=O)c1ccccc1)CCc1cc(O)c(O)c(O)c1-2 (stereo not drawn) | 35.3 | > 100 | 66.1 | 35.6 | 40.3 | > 100 | 88 | > 100 | 36.4 | 29.1 | 57.8 | 33.2 | 56.9 | > 100 | 10.6 |  | > 100 | 38.5 | 
CN1N=C2c3ccccc3OC(c3ccccc3)[C@H]2C1c1ccccc1 (stereo partly drawn) | > 100 | > 100 | > 100 | > 100 | > 100 | > 100 |  | > 100 | > 100 | > 100 | > 100 | > 100 | > 100 | 88.5 | > 100 |  | > 100 | > 100 | 
C#CC(C)(C)OCCCCOc1cc(O)c2c(=O)c3ccccc3n(C)c2c1 | > 100 | 45.7 | > 100 | > 100 | > 100 | > 100 | > 100 | > 100 | > 100 | > 100 | > 100 | > 100 | > 100 | > 100 | > 100 |  | > 100 | > 100 | 
O=C(O[C@H]1[C@@H]2C=CO[C@@H](OC3OC(CO)C(O)C(O)C3O)[C@@H]2[C@@]2(CO)O[C@@H]12)c1ccc(O)c(O)c1 (stereo partly drawn) |  | > 100 | > 100 | > 100 | > 100 | > 100 | > 100 | > 100 |  | > 100 | > 100 | > 100 | > 100 | > 100 | > 100 |  | > 100 | > 100 | 
CN/N=C(\C(=O)Nc1ccc(C(F)(F)F)cc1[N+](=O)[O-])C(c1cnc2ccc([N+](=O)[O-])cc2n1)[N+](=O)[O-] (stereo not drawn) | > 100 | > 100 | > 100 | 66.3 | > 100 | > 100 | > 100 | > 100 | > 100 | > 100 | > 100 |  | > 100 | > 100 | > 100 |  | > 100 | > 100 | 
CCCCCCCC(=O)OCC1OC(n2cc(F)c(=O)[nH]c2=O)C(N)C(O)C1O (stereo not drawn) | > 100 | > 100 | > 100 | > 100 | > 100 | > 100 | > 100 | > 100 | > 100 | > 100 | > 100 | > 100 | > 100 | > 100 | > 100 |  | > 100 | > 100 | 
